Test results reported in ChEMBL document CHEMBL4665916, “Human Insulin-like Peptide 5 (INSL5). Identification of a Simplified Version of Two-Chain Analog A13” (ACS Med Chem Lett, 2020).
pEC50, pKi: −log10 of the molar value. Bridge positions count the residues as written; N and C are the ends. Peptide text beside a SMILES is read from it. I, II: the chains in the order shown.

How the values were obtained:
Relaxin-3 receptor 2 [1] = target: T1, Relaxin-3 receptor 2 (Homo sapiens, UniProt Q8TDU9); assay: Agonist activity at human RXFP4 transfected in CHO-K1 cells co-transfected with pCRE-beta-galactosidase reporter plasmid assessed as inhibition of forskolin-induced cAMP accumulation measured after 6 hrs by beta-galactosidase reporter gene assay; format: functional, cell-based
T1 sequence (Q8TDU9 whole entry): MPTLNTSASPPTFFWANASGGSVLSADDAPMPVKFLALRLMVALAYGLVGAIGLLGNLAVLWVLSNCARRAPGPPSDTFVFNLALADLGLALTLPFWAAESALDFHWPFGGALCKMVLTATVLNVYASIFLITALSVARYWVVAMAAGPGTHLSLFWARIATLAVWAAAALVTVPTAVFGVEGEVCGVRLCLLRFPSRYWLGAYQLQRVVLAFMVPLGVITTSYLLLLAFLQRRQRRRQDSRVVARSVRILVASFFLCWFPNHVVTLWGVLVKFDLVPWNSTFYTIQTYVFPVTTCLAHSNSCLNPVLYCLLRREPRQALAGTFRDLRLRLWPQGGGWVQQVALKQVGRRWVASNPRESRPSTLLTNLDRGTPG

Relaxin-3 receptor 2 [2] = target: T1, Relaxin-3 receptor 2; assay: Competitive binding affinity to human RXFP4 receptor transfected in CHO-K1 cells in presence of europium-labeled Eu(A)-R3/I5 by fluorometric analysis; format: cell-based

| pEC50 (Relaxin-3 receptor 2 [1]) | pKi (Relaxin-3 receptor 2 [2]) | SMILES |
| --- | --- | --- |
| 7.85 | 7.30 | CC[C@H](C)[C@@H]1NC(=O)[C@H](Cc2ccc(O)cc2)NC(=O)[C@H]([C@@H](C)CC)NC(=O)[C@H](C(C)C)NC(=O)[C@H]([C@@H](C)O)NC(=O)[C@H](CCCNC(=N)N)NC(=O)[C@H]([C@@H](C)CC)NC(=O)[C@H](Cc2ccc(O)cc2)NC(=O)[C@H](CCC(=O)O)NC(=O)[C@H](CC(C)C)NC(=O)CNC(=O)[C@@H](NC(=O)[C@H](CC(C)C)NC(=O)[C@@H](N)CCCNC(=N)N)CSSC[C@H](N)C(=O)N[C@@H]([C@@H](C)O)C(=O)N[C@@H](CC(=O)O)C(=O)NCC(=O)N[C@@H](C)C(=O)N[C@@H](CO)C(=O)N[C@@H](CCSC)C(=O)N[C@@H](CCCCN)C(=O)N[C@@H](CC(=O)O)C(=O)N[C@@H](CC(C)C)C(=O)N[C@@H](CO)C(=O)N[C@@H](C)C(=O)N[C@@H](CC(C)C)C(=O)N[C@H](C(=O)O)CSSC[C@@H](C(=O)N[C@@H](C)C(=O)N[C@@H](CO)C(=O)N[C@@H](CO)C(=O)N[C@@H](CCCNC(=N)N)C(=O)N[C@@H](Cc2c[nH]c3ccccc23)C(=O)O)NC1=O (I: H-RLCGLEYIRTVIYICASSRW-OH / II: H-CTDGASMKDLSALC-OH; disulfide I:3-II:1, I:15-II:14) |
| 8.08 | – | CC[C@H](C)[C@@H]1NC(=O)[C@H](Cc2ccc(O)cc2)NC(=O)[C@H]([C@@H](C)CC)NC(=O)[C@H](C(C)C)NC(=O)[C@H]([C@@H](C)O)NC(=O)[C@H](CCCNC(=N)N)NC(=O)[C@H]([C@@H](C)CC)NC(=O)[C@H](Cc2ccc(O)cc2)NC(=O)[C@H](CCC(=O)O)NC(=O)[C@H](CC(C)C)NC(=O)CNC(=O)[C@@H](N)CSSC[C@H](N)C(=O)N[C@@H]([C@@H](C)O)C(=O)N[C@@H](CC(=O)O)C(=O)NCC(=O)N[C@@H](C)C(=O)N[C@@H](CO)C(=O)N[C@@H](CCSC)C(=O)N[C@@H](CCCCN)C(=O)N[C@@H](CC(=O)O)C(=O)N[C@@H](CC(C)C)C(=O)N[C@@H](CO)C(=O)N[C@@H](C)C(=O)N[C@@H](CC(C)C)C(=O)N[C@H](C(=O)O)CSSC[C@@H](C(=O)N[C@@H](C)C(=O)N[C@@H](CO)C(=O)N[C@@H](CO)C(=O)N[C@@H](CCCNC(=N)N)C(=O)N[C@@H](Cc2c[nH]c3ccccc23)C(=O)O)NC1=O (I: H-CGLEYIRTVIYICASSRW-OH / II: H-CTDGASMKDLSALC-OH; disulfide I:1-II:1, I:13-II:14) |
| 7.96 | 7.46 | CC[C@H](C)[C@@H]1NC(=O)[C@H](Cc2ccc(O)cc2)NC(=O)[C@H]([C@@H](C)CC)NC(=O)[C@H](C(C)C)NC(=O)[C@H]([C@@H](C)O)NC(=O)[C@H](CCCNC(=N)N)NC(=O)[C@H]([C@@H](C)CC)NC(=O)[C@H](Cc2ccc(O)cc2)NC(=O)[C@H](CCC(=O)O)NC(=O)[C@H](CC(C)C)NC(=O)CNC(=O)[C@@H](NC(=O)[C@H](CC(C)C)NC(=O)[C@H](CCCNC(=N)N)NC(=O)[C@@H](NC(=O)[C@@H](N)CO)C(C)C)CSSC[C@H](N)C(=O)N[C@@H]([C@@H](C)O)C(=O)N[C@@H](CC(=O)O)C(=O)NCC(=O)N[C@@H](C)C(=O)N[C@@H](CO)C(=O)N[C@@H](CCSC)C(=O)N[C@@H](CCCCN)C(=O)N[C@@H](CC(=O)O)C(=O)N[C@@H](CC(C)C)C(=O)N[C@@H](CO)C(=O)N[C@@H](C)C(=O)N[C@@H](CC(C)C)C(=O)N[C@H](C(=O)O)CSSC[C@@H](C(=O)N[C@@H](C)C(=O)N[C@@H](CO)C(=O)N[C@@H](CO)C(=O)N[C@@H](CCCNC(=N)N)C(=O)N[C@@H](Cc2c[nH]c3ccccc23)C(=O)O)NC1=O (I: H-SVRLCGLEYIRTVIYICASSRW-OH / II: H-CTDGASMKDLSALC-OH; disulfide I:5-II:1, I:17-II:14) |
